From US20230278972A1, “SUBSTITUTED HALOALKYL SULFONANILIDE HERBICIDES” (FMC Corporation, priority 2020, published 2023)

Experiments:
Format in all cases: in vivo
[1] = system: blackgrass (Alopecurus myosuroides); test: Test A1 preemergence, blackgrass
Procedure, shortened: (§1)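 Herbicidal response was scored on plants treated either preemergence, by directed spray onto soil of a loam–sand blend after sowing, or postemergence on potted plants at the one- to two-leaf stage, 2–10 cm high. Test chemicals were carried in a non-phytotoxic solvent mix with surfactant.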

[2] = system: goosegrass (Eleusine indica); test: Test A1 preemergence, goosegrass
Procedure, shortened: as §1

[3] = system: kochia (Bassia scoparia); test: Test A1 postemergence, kochia; conditions: Postemergence
Procedure, shortened: (§2)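 Pre: seeds in loam/sand blend, directed soil spray. Post: potted plants, same soil, 2–10 cm, 1–2 leaf stage. Chemicals in non-phytotoxic solvent + surfactant for both.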

[4] = system: Pigweed, Palmer (palmer amaranth, palmer pigweed, Amaranthus palmeri); test: Test A1 postemergence, Pigweed, Palmer; conditions: Postemergence
Procedure, shortened: as §1

[5] = system: ragweed (common ragweed, Ambrosia artemisiifolia); test: Test A1 postemergence, ragweed; conditions: Postemergence
Procedure, shortened: as §1

[6] = system: soybean (Glycine max); test: Test A1 postemergence, soybean; conditions: Postemergence
Procedure, shortened: as §2

[7] = system: wheat (Triticum aestivum); test: Test A1 postemergence, wheat; conditions: Postemergence
Procedure, shortened: as §2

[8] = 31 g ai/ha, 0 to 100 scale (0 no effect, 100 complete control)
[9] = 125 g ai/ha, 0 to 100 scale, 0 no effect, 100 complete control
[10] = 31 g ai/ha, 0 to 100 scale (0 no effect, 100 complete control), 10 days

Structure (SMILES)	Plant response rating, Blackgrass [1, 8]	Plant response rating, Blackgrass [1, 9]	Plant response rating, Goosegrass [2, 8]	Plant response rating, Goosegrass [2, 9]	Plant response rating, Kochia [3, 10]	Plant response rating, Kochia ([3]; 125 g ai/ha, 0 to 100 scale)	Plant response rating, Pigweed, Palmer [4, 10]	Plant response rating, Pigweed, Palmer ([4]; 125 g ai/ha, 0 to 100 scale)	Plant response rating, Ragweed [5, 10]	Plant response rating, Ragweed ([5]; 125 g ai/ha, 0 to 100 scale)	Plant response rating, Soybean [6, 10]	Plant response rating, Soybean ([6]; 125 g ai/ha, 0 to 100 scale)	Plant response rating, Wheat [7, 10]	Plant response rating, Wheat ([7]; 125 g ai/ha, 0 to 100 scale)
Cc1c(NS(=O)(=O)C(F)(F)F)cc(C(=O)N2CCC(F)(F)CC2)c(C)c1C [Compound 357]	0	10	80	100	0	30	0	50	80	80	40	90	0	0
Cc1c(C(=O)N2C[C@@H](C)O[C@@H](C)C2)cc(N(COC(=O)C(C)(C)C)S(=O)(=O)C(F)(F)F)c(C)c1C [Compound 331]	0	0	0	90	0	10	0	20	70	80	60	70	0	50
Cc1cc(C)c(N(COC(=O)C(C)(C)C)S(=O)(=O)C(F)(F)F)cc1C1=NOC2CCCCCC12 (single isomer, unassigned) [Compound 294]	10	0	0	90	0	20	10	30	30	80	0	50	0	20
CCC1ON=C(c2cc(N(C(=O)OCC(C)C)S(=O)(=O)C(F)(F)F)c(C)cc2C)C1CC (stereo not shown) [Compound 345]	40	70	30	90	30	80	40	60	30	70	40	50	30	60
Cc1c(NS(=O)(=O)C(F)(F)F)cc(C2=NOC3CCCC23)c(C)c1C (stereo not shown) [Compound 335]	0	0	30	70	10	60	20	30	50	80	0	30	0	0
Cc1c(C(=O)N2CCC(F)(F)CC2)cc(N(COC(=O)C(C)(C)C)S(=O)(=O)C(F)(F)F)c(C)c1C [Compound 360]	0	0	0	90	30	50	20	40	70	90	20	40	0	0
COCC1CC(c2cc(N(COC(=O)C(C)(C)C)S(=O)(=O)C(F)(F)F)c(C)cc2C)=NO1 (stereo not shown) [Compound 338]	0	0	40	100	10	60	0	30	30	70	10	40	20	70
CCc1cc(C)c(C2=NOC3(CCCC3)C2)cc1NS(=O)(=O)C(F)(F)F [Compound 311]	20	40	10	60	0	0	0	0	0	0	10	40	0	0
